Series [1] has as its system β amyloid protein (Aβ) secreted by E35 cells (human glioma H4 cells transfected with APP751 gene). The series can be described thus: Inhibition of production or secretion of β-amyloid protein (Aβ) in E35 cells, sandwich ELISA of the supernatant. Format: cell-based. The settings on record: 24 hours with test compound, compared to DMSO control cells, read-out: Activity (IC50, concentration at which 50% inhibition of Aβ production was observed). The procedure:
The inhibitory activity against formation of β amyloid protein of the compounds obtained in Examples was tested in the method described bellow.
E35 cells were established by transfecting APP751 gene which is a wild type human β-amyloid protein precursor into human glioma cells (H4 cells).
E35 cells were seeded in 96-well plates and cultured in an incubator of 37° C. by using a Dulbecco's Modified Eagle's Medium containing 10% inactivated fetal bovine serum (10% FBS-DMEM). Twenty-four hours after seeding, a test compound dissolved in DMSO so as to give its concentration to be 2000 times as much as that of the final concentration was added to the medium in an amount of 1/2000 capacity of the culture medium. The cells were cultured for additional twenty-four hours, and then the supernatant was collected. The amount of β amyloid protein (Aβ) secreted in the supernatant was measured by the sandwich enzyme-linked immunosorbent assay (ELISA). Described specifically, a monoclonal antibody 25-1, which recognized Aβ25-35, was immobilized onto a 96-well ELISA plate, followed by the incubation at 4° C. for 16 to 20 hours. After washing with a phosphate buffer (pH 7.4) (PBS), a biotinylated monoclonal antibody MA32-40, which recognized Aβ1-8, was added, and the plate was kept at 4° C. for 2 hours. After the supernatant was removed and the well was washed sufficiently with PBS, alkaline phosphatase-conjugated streptavidin was added to the plate. Absorbance was measured while adding BlouPhos (manufactured by KPL) as a substrate. An amount of Aβ contained in the supernatant was calculated using a calibration curve separately created using Aβ of a known concentration. IC50 of the test compound was presented as the concentration at which 50% inhibition of Aβ production was observed compared to the amount of Aβ of the control cells to which only DMSO was added.
When there is at least 10-times difference between the IC50 and the concentration at which cytotoxicity appears, then the compound is judged as a compound having an inhibitory activity against production or secretion of β amyloid protein.

Data on 22 compounds can be found in patent US7932271B2, “Heterocyclic methyl sulfone derivative” (Daiichi Pharmaceutical Co., Ltd., priority 2003, dated 2011).

SMILES strings stand for the structures.

Turning to `COc1cc(S(=O)(=O)C(c2cc(F)ccc2F)c2cc(N)ncc2Cl)ccc1Cl` (centres unmarked) [Example 239, [5-Chloro-4-[(4-chloro-3-methoxyphenylsulfonyl)(2,5-difluorophenyl)methyl]pyridin-2-yl]amine], the melting point (in general, the temperature of the solid-liquid transition) was in the range of 198 to 200 °C. Further, the IC50 in series [1] was 50 to 500 nM.
`COc1ccc(S(=O)(=O)C(c2cc(F)ccc2F)c2cc(N)ncc2Cl)cc1` (centres unmarked) [Example 240, [5-Chloro-4-[(2,5-difluorophenyl)(4-methoxyphenylsulfonyl)methyl]pyridin-2-yl]amine] came in with a melting point of 153 to 155 °C. In addition, the IC50 in series [1] lay within 5 to 50 nM.
For `Nc1cc(C(c2cc(F)ccc2F)S(=O)(=O)c2ccc(Cl)cn2)c(Cl)cn1` (centres unmarked) [Example 241, [5-Chloro-4-[(5-chloropyridin-2-ylsulfonyl)(2,5-difluorophenyl)methyl]pyridin-2-yl]amine], in that order: 187 to 189 °C and 5 to 50 nM.
For `CS(=O)(=O)Nc1cc(C(c2cc(F)ccc2F)S(=O)(=O)c2ccc(Cl)cn2)c(Cl)cn1` (centres unmarked) [Example 242, N-[5-Chloro-4-[(5-chloropyridin-2-ylsulfonyl)(2,5-difluorophenyl)methyl]pyridin-2-yl]methanesulfonamide] the same measures were 214 to 216 °C and 50 to 500 nM.
With `Nc1cc(C(c2cc(F)ccc2F)S(=O)(=O)c2ccc(Cl)s2)c(Cl)cn1` (centres unmarked) [Example 243, [5-Chloro-4-[(5-chlorothiophen-2-ylsulfonyl)(2,5-difluorophenyl)methyl]pyridin-2-yl]amine], the melting point is 170 to 171 °C. Further, in series [1], the IC50 lay in the range of 5 to 50 nM.
For `Nc1cc(C(c2cc(F)ccc2F)S(=O)(=O)c2ccc(Cl)nc2)c(Cl)cn1` (centres unmarked) [Example 245, [5-Chloro-4-[(6-chloropyridin-3-ylsulfonyl)(2,5-difluorophenyl)methyl]pyridin-2-yl]amine], in that order: 157 to 158 °C and 5 to 50 nM.
`N#Cc1ccc(S(=O)(=O)C(c2cc(F)ccc2F)c2cc(N)ncc2Cl)cc1` (centres unmarked) [Example 246, 4-[(2-Amino-5-chloropyridin-4-yl)(2,5-difluorophenyl)methylsulfonyl]benzonitrile] displayed a melting point of 233 to 235 °C. In series [1], the IC50 is 5 to 50 nM.
`Nc1cc(C(c2cc(F)ccc2F)S(=O)(=O)c2ccc(F)c(F)c2)c(Cl)cn1` (centres unmarked) [Example 247, [5-Chloro-4-[(2,5-difluorophenyl)(3,4-difluorophenylsulfonyl)methyl]pyridin-2-yl]amine] gave a melting point of 140 to 141 °C. Also, the IC50 in series [1] is less than 5 nM.
Turning to `CS(=O)(=O)Nc1cc(C(c2cc(F)ccc2F)S(=O)(=O)c2ccc(F)c(F)c2)c(Cl)cn1` (centres unmarked) [Example 249, N-[5-Chloro-4-[(2,5-difluorophenyl)(3,4-difluorophenylsulfonyl)methyl]pyridin-2-yl]methanesulfonamide], the melting point fell in the range of 118 to 120 °C. Besides, the IC50 in series [1] was less than 5 nM.
For `Nc1cc(C(c2cc(F)ccc2F)S(=O)(=O)c2ccc(C(F)(F)F)nc2)c(Cl)cn1` (centres unmarked) [Example 250, [5-Chloro-4-[(2,5-difluorophenyl)(6-trifluoromethylpyridin-3-ylsulfonyl)methyl]pyridin-2-yl]amine] the same measures were 201 to 202 °C and 5 to 50 nM.
The compound `Nc1cc(C(c2cc(F)ccc2F)S(=O)(=O)c2ccc(Cl)c(F)c2)c(Cl)cn1` (centres unmarked) [Example 251, [5-Chloro-4-[(4-chloro-3-fluorophenylsulfonyl)(2,5-difluorophenyl)methyl]pyridin-2-yl]amine] returned a melting point of 159 to 160 °C. Also, the IC50 in series [1] was less than 5 nM.
In turn, `O=C(O)CCc1cc(C(c2cc(F)ccc2F)S(=O)(=O)c2ccc(Cl)cc2)c(F)cn1` (centres unmarked) [Example 254, 3-[4-[(4-Chlorophenylsulfonyl)(2,5-difluorophenyl)methyl]-5-fluoropyridin-2-yl]propionic acid] yielded a melting point of 89 to 91 °C. Also, in series [1], the IC50 was in the range of 50 to 500 nM.
For `O=C(O)CCc1cc(C(c2cc(F)ccc2F)S(=O)(=O)c2ccc(Cl)cc2)c(Cl)cn1` (centres unmarked) [Example 261, 3-[5-Chloro-4-[(4-chlorophenylsulfonyl)(2,5-difluorophenyl)methyl]pyridin-2-yl]propionic acid], in that order: 194 to 196 °C and 5 to 50 nM.
For `O=C(O)CCc1cc(C(c2cc(F)ccc2F)S(=O)(=O)c2ccc(C(F)(F)F)cc2)c(Cl)cn1` (centres unmarked) [Example 267, 3-[5-Chloro-4-[(2,5-difluorophenyl)(4-trifluoromethylphenylsulfonyl)methyl]pyridin-2-yl]propionic acid], in that order: 166 to 167 °C and 5 to 50 nM.
`Cn1cnc(S(=O)(=O)Nc2cc(C(c3cc(F)ccc3F)S(=O)(=O)c3ccc(Cl)cc3)c(Cl)cn2)c1` (centres unmarked) [Example 268, N-[5-Chloro-4-[(4-chlorophenylsulfonyl)(2,5-difluorophenyl)methyl]pyridin-2-yl]-1-methyl-1H-imidazole-4-sulfonamide] showed a melting point of 294 to 296 °C. Besides, the IC50 in series [1] is less than 5 nM.
With `O=S(=O)(Cc1ccncc1)Nc1cc(C(c2cc(F)ccc2F)S(=O)(=O)c2ccc(Cl)cc2)c(Cl)cn1` (centres unmarked) [Example 269, N-[5-Chloro-4-[(4-chlorophenylsulfonyl)(2,5-difluorophenyl)methyl]pyridin-2-yl]-1-pyridin-4-ylmethanesulfonamide], the melting point is 257 °C (dec.). The IC50 in series [1] was less than 5 nM.
For `O=S(=O)(c1ccc(Cl)cc1)C(c1cc(F)ccc1F)c1cc(NS(=O)(=O)N2CCCCC2)ncc1Cl` (centres unmarked) [Example 270, N-[5-Chloro-4-[(4-chlorophenylsulfonyl)(2,5-difluorophenyl)methyl]pyridin-2-yl]piperidine-1-sulfonamide], in that order: 192 to 194 °C and 5 to 50 nM.
Consider `CN1CCN(S(=O)(=O)Nc2cc(C(c3cc(F)ccc3F)S(=O)(=O)c3ccc(Cl)cc3)c(Cl)cn2)CC1` (centres unmarked) [Example 271], for which the melting point lay in the range of 215 to 218 °C. Further, the IC50 in series [1] is less than 5 nM.
For `O=S(=O)(c1ccc(Cl)cc1)C(c1cc(F)ccc1F)c1cc(N2CCCS2(=O)=O)ncc1Cl` (centres unmarked) [Example 274, 5-Chloro-4-[(4-chlorophenylsulfonyl)(2,5-difluorophenyl)methyl]-2-(1,1-dioxo-1λ^6-isothiazolidin-2-yl)pyridine] the same measures were 219 to 221 °C and 5 to 50 nM.
For `O=S(=O)(c1ccc(Cl)cc1)C(c1cc(F)ccc1F)c1cc(NS(=O)(=O)C(F)(F)F)ncc1Cl` (centres unmarked) [Example 276, N-[5-Chloro-4-[(4-chlorophenylsulfonyl)(2,5-difluorophenyl)methyl]pyridin-2-yl]trifluoromethanesulfonamide], in that order: 221 to 223 °C and 5 to 50 nM.
For `O=S(=O)(CCN1CCCCC1)Nc1cc(C(c2cc(F)ccc2F)S(=O)(=O)c2ccc(Cl)cc2)c(Cl)cn1` (centres unmarked) [Example 278, N-[5-Chloro-4-[(4-chlorophenylsulfonyl)(2,5-difluorophenyl)methyl]pyridin-2-yl]-2-piperidin-1-ylethanesulfonamide] the same measures were 200 to 203 °C and less than 5 nM.
Compound `O=S(=O)(CCN1CCOCC1)Nc1cc(C(c2cc(F)ccc2F)S(=O)(=O)c2ccc(Cl)cc2)c(Cl)cn1` (centres unmarked) [Example 280, N-[5-Chloro-4-[(4-chlorophenylsulfonyl)(2,5-difluorophenyl)methyl]pyridin-2-yl]-2-morpholin-4-ylethanesulfonamide] had a melting point of 219 to 221 °C. Moreover, the IC50 in series [1] was less than 5 nM.
